Source: US20110039783A1, “PEPTIDE HAVING HYPOTENSIVE ACTIVITY” (DAIICHI SANKYO COMPANY LIMITED, priority 2007, published 2011)
“Also recorded” adds a separate entry of the source.

Assays:
[1] = system: blood pressure of anesthetized Sprague-Dawley IGS male rats; assay: Hypotensive activity in anesthetized rats, invasive blood pressure measurement after intravenous administration; type: in vivo, rat; details: for Hypotensive activity (dose/rat) 10 nmol / Hypotensive activity (dose/rat) 30 nmol: intravenous; for Hypotensive activity (dose/rat) 10 nmol: 10 nmol/rat; for Hypotensive activity (dose/rat) 30 nmol: 30 nmol/rat
[2] = system: blood pressure of awake Sprague-Dawley IGS male rats; assay: Hypotensive activity on awake rats; type: in vivo, rat; set-up: key to Hypotensive activity (dose/rat) 10 nmol / Hypotensive activity (dose/rat) 30 nmol: Extremely strong activity (+++): A decrease in systolic blood pressure is 30 mmHg or more, and the time required for recovery is 5 minutes or more.; Strong activity (++): A decrease in systolic blood pressure is 20 mmHg or more and less than 30 mmHg, or the time required for recovery is less than 5 minutes.; Activity observed (+): A decrease in systolic blood pressure is less than 20 mmHg.; Activity not observed (−)
Description: 50 mg/kg pentobarbital sodium was intraperitoneally administered to 8- to 10-week-old Sprague-Dawley IGS male rats (Charles River Laboratories Japan, Inc.) for anesthesia. Thereafter, a jugular vein cannula (Silascon 0.5-1.0) was inserted into each rat for use in peptide administration, and a carotid artery cannula (PE50) was inserted into each rat for use in the measurement of blood pressure. At least 3 hours after the surgery, it was confirmed that the rats were awoken from the anesthesia based on general conditions such as the posture, respiration, and the like of the rats. Thereafter, the rats were subjected to the experiment.
The carotid artery cannula was connected with a pressure transducer (PE23XL; manufactured by Nihon Kohden Corporation), and an apparatus formed by incorporating a blood pressure measurement unit (AP-641G; manufactured by Nihon Kohden Corporation) and an instantaneous heart rate measurement unit (AT-601G; manufactured by Nihon Kohden Corporation) into a multi-purpose preamplifier (RP-6004; manufactured by Nihon Kohden Corporation) was used to record the blood pressure and heart rate of each rat. The blood pressure was calibrated using a mercury manometer included in a stand-type electromanometer (MP-25S; manufactured by Nihon Kohden Corporation). The recording paper was adjusted, such that 20 mm or 40 mm on the recording paper corresponded to 100 mmHg. A solvent in which each peptide had been dissolved was used as a negative control in blood pressure fluctuation.
Each peptide was dissolved in a concentration of 1 mM in a 5% mannitol solution to prepare a peptide solution. Thereafter, depending on dose, it was diluted with a 5% mannitol solution. In the case of the dose of 10 nmol/rat, a 1 mM peptide solution was 30 times diluted, and 300 μL of the diluted solution was administered. In the case of the dose of 30 nmol/rat, a 1 mM peptide solution was 10 times diluted, and 300 μl of the diluted solution was administered. In the case of the dose of 100 nmol/rat, a 1 mM peptide solution was 3 times diluted, and 300 μL of the diluted solution was administered. Each peptide was intravenously administered via the jugular vein cannula, and the systolic blood pressure, diastolic blood pressure, and heart rate were then measured.
The definition of the strength of hypotensive activity was the same as that of Example 3.

[3] = system: blood pressure of awake C57BL/6 mice; assay: Hypotensive activity on awake mice (tail cuff, systolic blood pressure); type: in vivo, mouse; details: caudal vein, 0.1 and 1 mg/kg, FIG. 2, listed as HC021-007
Description: A C57BL/6 mice with a body weight of 30 to 40 g (Charles River Laboratories Japan, Inc.) were each placed in a retaining appliance of a non-preheating, non-invasive blood pressure monitor for mice and rats (MODEL MK-2000; Muromachi Kikai Co., Ltd.), and a cuff-pulse sensor was then attached to the root of the tail. After confirming that the blood pressure of each mouse had been stable, the mouse was subjected to the experiment.
A peptide solution was prepared by diluting each peptide with a normal saline, depending on the dose. In the case of the dose of 0.1 mg/kg, a 0.02 mg/mL peptide solution was prepared. In the case of the dose of 1 mg/kg, a 0.2 mg/mL peptide solution was prepared. The amount of the solution to be administered was set at 5 mL/kg. As a positive control, a human atrial natriuretic peptide (hANP) was used. As a negative control, a normal saline was used. Each peptide was administered via the caudal vein using a syringe with a 29G needle. Three and ten minutes after the administration, the systolic blood pressure and the heart rate were measured.

ATVRNEDKWKPLNNPRNRDLFFRRLQAYFK-amide (C-terminal amide) [Compound 5]
Hypotensive activity (dose/rat) 10 nmol ([1]; Table 1, anesthetized rats): ++ (Strong activity (++): A decrease in systolic blood pressure is 20 mmHg or more and less than 30 mmHg, or the time required for recovery is less than 5 minutes.) | Hypotensive activity (dose/rat) 30 nmol ([1]; Table 1, anesthetized rats): +++ (Extremely strong activity (+++): A decrease in systolic blood pressure is 30 mmHg or more, and the time required for recovery is 5 minutes or more.) | Hypotensive activity (dose/rat) 10 nmol ([1]; Table 2, anesthetized rats): ++ (Strong activity (++): A decrease in systolic blood pressure is 20 mmHg or more and less than 30 mmHg, or the time required for recovery is less than 5 minutes.) | Hypotensive activity (dose/rat) 30 nmol ([1]; Table 2, anesthetized rats): +++ (Extremely strong activity (+++): A decrease in systolic blood pressure is 30 mmHg or more, and the time required for recovery is 5 minutes or more.) | Hypotensive activity (dose/rat) 10 nmol ([1]; Table 3, anesthetized rats): ++ (Strong activity (++): A decrease in systolic blood pressure is 20 mmHg or more and less than 30 mmHg, or the time required for recovery is less than 5 minutes.) | Hypotensive activity (dose/rat) 30 nmol ([1]; Table 3, anesthetized rats): +++ (Extremely strong activity (+++): A decrease in systolic blood pressure is 30 mmHg or more, and the time required for recovery is 5 minutes or more.) | dose dependence of hypotensive activity ([1]; anesthetized rats, 10, 30, 100 nmol/rat): enhanced their hypotensive activity in a dose-dependent manner | hypotensive activity (in words) ([1]; anesthetized rats, Table 1 and FIG. 1, 10 or 30 nmol/rat, listed as HC021-007): observed to have a hypotensive activity; also recorded: act to lower the blood pressure of rats | hypotensive activity (in words) [2]: observed to have a hypotensive activity even on the awake rats | Hypotensive activity (dose/rat) 10 nmol ([2]; Table 4, intravenous, 10 nmol/rat): − | Hypotensive activity (dose/rat) 30 nmol ([2]; Table 4, intravenous, 30 nmol/rat): ++ (Strong activity (++): A decrease in systolic blood pressure is 20 mmHg or more and less than 30 mmHg, or the time required for recovery is less than 5 minutes.) | Hypotensive activity (dose/rat) 100 nmol ([2]; Table 4, intravenous, 100 nmol/rat): +++ (Extremely strong activity (+++): A decrease in systolic blood pressure is 30 mmHg or more, and the time required for recovery is 5 minutes or more.) | hypotensive activity (in words), change in systolic blood pressure [3]: exhibited a hypotensive activity even on the awake mice; also recorded: lower the blood pressure of awake mice
